For 20 molecules, TGI results are on record in PubChem BioAssay (NCI).

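1) Cells in 96-well plates. 2) Compound, 48 h, 5 concentrations. 3) Linear interpolation between surrounding doses. 4) Unreached endpoint = highest concentration. At the TGI there is no net growth.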 Where only a bound is given, the exact number is not on record here.

Test in all cases: NCI tumour cell line growth inhibition, 48 h
The subject of assay [1] is OVCAR-8 ovarian.
Assay [2] concerns M14 melanoma.
For assay [3], the system named is UACC-257 melanoma.
Assay [4] has as its system SNB-75 CNS.
Assay [5] concerns SR leukemia.
Assay [6] has as its system NCI-H460 lung.

On to `NC(=S)Nc1c(S(N)(=O)=O)cc(S(N)(=O)=O)c(Cl)c1Cl`, for which the TGI in assay [1], in assay [2], in assay [3] and in assay [4] was over 100 µM in each case.
For the molecule `N#Cc1nc(N)c(C#N)[nH]1`, the TGI in assay [5], in assay [1], in assay [6], in assay [2], in assay [3] and in assay [4] was over 100 µM throughout.
As for `O=C(CC(O)(C(F)(F)Cl)C(F)(F)Cl)CC(O)(C(F)(F)Cl)C(F)(F)Cl`, the TGI in assay [5] was over 10 µM; in assay [1] it was over 10 µM; in assay [6], over 10 µM; in assay [2], over 10 µM; in assay [3], 6.17 µM; in assay [4] it was 9.7 µM.
As for `Cc1cc(C)c2c(=O)cc(-c3ccccc3)[nH]c2c1`, the TGI in assay [5] is over 100 µM; in assay [1], 46.9 µM; in assay [6] it was 31.2 µM; in assay [2], over 82.4 µM; in assay [3], over 100 µM; in assay [4] it was 19.3 µM.
Consider `CC1(C)OP(=O)(c2ccccc2)C=C1Br` (configuration not stated), for which the TGI in assay [5], in assay [1], in assay [6], in assay [2], in assay [3] and in assay [4] was over 100 µM throughout.
`Cc1ccc(NC(=O)C23CC4CC(CC(C4)C2)C3)c(C(=O)NNC(=O)c2ccc(Cl)cc2)c1`: the TGI was 30.1 µM in assay [5]; over 100 µM in assay [1]; 69.2 µM in assay [6]; over 100 µM in assay [2]; 9.53 µM in assay [3].
For the molecule `C/C(CC(O)(C(F)(F)Cl)C(F)(F)Cl)=N\Nc1ccccc1`, the TGI in assay [5] was over 100 µM; in assay [1], over 100 µM; in assay [6], over 100 µM; in assay [2] it was over 100 µM; in assay [3], over 100 µM; in assay [4], 78.9 µM.
On to `CCCc1c(O)c2ccccc2[nH]c1=O`, for which the TGI in assay [5], in assay [1], in assay [6], in assay [3] and in assay [4] was over 100 µM in each case.
Regarding `COc1ccc(NS(=O)(=O)c2ccc3ncn(NS(=O)(=O)c4ccc(I)cc4)c(=O)c3c2)cc1`, the TGI in assay [5], in assay [1], in assay [6], in assay [2], in assay [3] and in assay [4] was over 100 µM each time.
For `CC(=O)OC12c3ccccc3C(c3ccccc31)C1C(=O)N(c3ccccc3O)C(=O)C12` (configuration not stated), the TGI in assay [5], in assay [1], in assay [6], in assay [2], in assay [3] and in assay [4] was over 100 µM throughout.
Turning to `C=CC(Br)(CBr)CCC1OC1(C)C` (configuration not stated), the TGI in assay [5] is 86.8 µM; in assay [6], 28.3 µM; in assay [2], 29 µM; in assay [3] it was 27.7 µM; in assay [4], 32.3 µM.
Regarding `CCN(CC)CCOc1ccc(N2Cc3cc(OC)c(OC)cc3C2=O)cc1`, the TGI in assay [5], in assay [1], in assay [6], in assay [2] and in assay [3] was over 100 µM throughout.
Take `Cc1c(/C=N/NC(=S)Nc2ccc([N+](=O)[O-])cc2)c(=O)n(-c2ccccc2)n1C`: the TGI in assay [5] was over 100 µM; in assay [1], 31.6 µM; in assay [2], 28.6 µM; in assay [3], over 100 µM; in assay [4], 26.3 µM.
As for `Cc1ccc(C)n1-n1c(Cc2ccc(Cl)cc2)n[nH]c1=O`, the TGI in assay [5], in assay [1], in assay [6], in assay [2], in assay [3] and in assay [4] was over 100 µM in each case.
`CC1NC(=O)c2c(-c3ccccc3)nn(-c3ccccc3)c2NC1=O` (configuration not stated): the TGI in assay [5], in assay [1], in assay [6], in assay [2], in assay [3] and in assay [4] was over 100 µM throughout.
Turning to `COCN1C(=O)[C@@H]2CCCN2C(=O)c2ccc(Cl)cc21`, the TGI in assay [5], in assay [1], in assay [6], in assay [2], in assay [3] and in assay [4] was over 100 µM in each case.
Take `Cc1cc(N(C)C)ccc1N=Nc1ccc2ncccc2c1`: the TGI in assay [5], in assay [1], in assay [6], in assay [2], in assay [3] and in assay [4] was over 100 µM each time.
As for `CCOC(=O)C(=O)N=Nc1c(O)[nH]c2ccccc12`, the TGI in assay [5], in assay [1], in assay [6], in assay [2], in assay [3] and in assay [4] was over 100 µM throughout.
`CCOC(=O)c1sc2c(c1OC(=O)c1ccc(Cl)cc1Cl)c(=O)n(-c1ccccc1)c(=S)n2-c1ccccc1`: the TGI in assay [1] was over 100 µM; in assay [6] it was over 55 µM; in assay [2], over 100 µM; in assay [3], over 100 µM; in assay [4], over 100 µM.
On to `CCN(CC)CCC1CCCCN1CC(=O)N1c2ccccc2NC(=O)CC1C` (configuration not stated), for which the TGI in assay [5] was over 100 µM; in assay [1] it was over 100 µM; in assay [6], over 100 µM; in assay [2] it was over 100 µM; in assay [3], over 100 µM; in assay [4], 11.8 µM.
